Results on 21 compounds are retold here after publication PMC4460250, “Systems Pharmacology Dissecting Holistic Medicine for Treatment of Complex Diseases: An Example Using Cardiocerebrovascular Diseases Treated by TCM” (Evidence-based Complementary and Alternative Medicine : eCAM, 2015).

Molecules are shown by their SMILES.

The conditions of data set [1]: in vivo; cited from earlier work.
The conditions of data set [2]: in vivo.

For `CCC1(CCC(C)C)C(=O)NC(=O)NC1=O` [Amobarbital], in data set [1], the “HIA(Human Intestinal Absorption)” value is recorded as 0.95. In addition, the “Class(High: HIA value ≥0.7; Low: HIA value < 0.7)” value in data set [2] is reported as “High (key: High: HIA value ≥0.7; Low: HIA value < 0.7)”.
For `CCN1CCCC1CNC(=O)c1cc(S(N)(=O)=O)ccc1OC` (stereo not drawn) [Sulpiride], the “HIA(Human Intestinal Absorption)” value in data set [1] is listed as 0.44. The “Class(High: HIA value ≥0.7; Low: HIA value < 0.7)” value in data set [2] is on record as “Low (key: High: HIA value ≥0.7; Low: HIA value < 0.7)”.
Take `CCn1cc(C(=O)O)c(=O)c2cc(F)c(N3CCN[C@@H](C)C3)c(F)c21` [Lomefloxacin(S)]: the “HIA(Human Intestinal Absorption)” value in data set [1] was 0.99. For the same compound, the “Class(High: HIA value ≥0.7; Low: HIA value < 0.7)” value in data set [2] is given as “High (key: High: HIA value ≥0.7; Low: HIA value < 0.7)”.
In the case of `Cc1ccccc1N1C(=O)c2cc(S(N)(=O)=O)c(Cl)cc2N[C@H]1C` [Metolazone(R)], the “HIA(Human Intestinal Absorption)” value in data set [1] was 0.64. Besides, the “Class(High: HIA value ≥0.7; Low: HIA value < 0.7)” value in data set [2] is on record as “Low (key: High: HIA value ≥0.7; Low: HIA value < 0.7)”.
Take `CN(C)C(=O)O[C@@H]1N=C(c2ccccc2)c2cc(Cl)ccc2N(C)C1=O` [Camazepam(S)]: the “HIA(Human Intestinal Absorption)” value in data set [1] is on record as 1. In data set [2], the “Class(High: HIA value ≥0.7; Low: HIA value < 0.7)” value is recorded as “High (key: High: HIA value ≥0.7; Low: HIA value < 0.7)”.
Regarding `N=C(N)NC(=O)c1nc(Cl)c(N)nc1N` [Amiloride], the “HIA(Human Intestinal Absorption)” value in data set [1] is 0.5. The “Class(High: HIA value ≥0.7; Low: HIA value < 0.7)” value in data set [2] was “Low (key: High: HIA value ≥0.7; Low: HIA value < 0.7)”.
As for `COc1cccc2c1C(=O)c1c(O)c3c(c(O)c1C2=O)C[C@@](O)(C(C)=O)C[C@@H]3O[C@H]1C[C@H](N)[C@H](O)[C@H](C)O1` [Daunorubicin], in data set [1], the “HIA(Human Intestinal Absorption)” value is reported as 0.1. In data set [2], the “Class(High: HIA value ≥0.7; Low: HIA value < 0.7)” value is “Low (key: High: HIA value ≥0.7; Low: HIA value < 0.7)”.
`O=[N+]([O-])O[C@H]1CO[C@H]2[C@@H]1OC[C@H]2O[N+](=O)[O-]` [Isosorbide_dinitrate]: in data set [1], the “HIA(Human Intestinal Absorption)” value was 1. Besides, in data set [2], the “Class(High: HIA value ≥0.7; Low: HIA value < 0.7)” value is reported as “High (key: High: HIA value ≥0.7; Low: HIA value < 0.7)”.
As for `CC(C)(Oc1ccc([C@H]2CC2(Cl)Cl)cc1)C(=O)O` [Ciprofibrate(R)], the “HIA(Human Intestinal Absorption)” value in data set [1] was 0.99. The “Class(High: HIA value ≥0.7; Low: HIA value < 0.7)” value in data set [2] was “High (key: High: HIA value ≥0.7; Low: HIA value < 0.7)”.
For `COC(=O)[C@H](c1ccccc1Cl)N1CCc2sccc2C1` [Clopidogrel(S)], the “HIA(Human Intestinal Absorption)” value in data set [1] was 0.5. In addition, the “Class(High: HIA value ≥0.7; Low: HIA value < 0.7)” value in data set [2] is “Low (key: High: HIA value ≥0.7; Low: HIA value < 0.7)”.
For the compound `COc1ccc([C@H](CN(C)C)C2(O)CCCCC2)cc1` [Venlafaxine(R)], the “HIA(Human Intestinal Absorption)” value in data set [1] is 0.95. Also, the “Class(High: HIA value ≥0.7; Low: HIA value < 0.7)” value in data set [2] is “High (key: High: HIA value ≥0.7; Low: HIA value < 0.7)”.
As to `CC(C)(Oc1ccc([C@@H]2CC2(Cl)Cl)cc1)C(=O)O` [Ciprofibrate(S)], the “HIA(Human Intestinal Absorption)” value in data set [1] is 0.99. The “Class(High: HIA value ≥0.7; Low: HIA value < 0.7)” value in data set [2] was “High (key: High: HIA value ≥0.7; Low: HIA value < 0.7)”.
As for `O=[N+]([O-])O[C@H]1CO[C@H]2[C@@H]1OC[C@H]2O` [Isosorbide-2-mononitrate], the “HIA(Human Intestinal Absorption)” value in data set [1] is 0.9. Further, the “Class(High: HIA value ≥0.7; Low: HIA value < 0.7)” value in data set [2] is given as “High (key: High: HIA value ≥0.7; Low: HIA value < 0.7)”.
In the case of `CCCC(CCC)CCC[C@H]1COCCN1CCO` [Delmopinol(S)], the “HIA(Human Intestinal Absorption)” value in data set [1] is recorded as 0.95. Further, the “Class(High: HIA value ≥0.7; Low: HIA value < 0.7)” value in data set [2] is reported as “High (key: High: HIA value ≥0.7; Low: HIA value < 0.7)”.
As for `CCCC[C@@H]1C(=O)N(c2ccccc2)N(c2ccc(O)cc2)C1=O` [Oxyphenbutazone(R)], the “HIA(Human Intestinal Absorption)” value in data set [1] is listed as 1. The “Class(High: HIA value ≥0.7; Low: HIA value < 0.7)” value in data set [2] is reported as “High (key: High: HIA value ≥0.7; Low: HIA value < 0.7)”.
As for `CN1C(=O)CC[C@H]1c1cccnc1` [Cotinine(S)], the “HIA(Human Intestinal Absorption)” value in data set [1] is reported as 0.97. Moreover, in data set [2], the “Class(High: HIA value ≥0.7; Low: HIA value < 0.7)” value is “High (key: High: HIA value ≥0.7; Low: HIA value < 0.7)”.
On to `NCCC[C@@](N)(C(=O)O)C(F)F` [Eflornithine(R)], for which the “HIA(Human Intestinal Absorption)” value in data set [1] is given as 0.55. For the same compound, the “Class(High: HIA value ≥0.7; Low: HIA value < 0.7)” value in data set [2] is on record as “Low (key: High: HIA value ≥0.7; Low: HIA value < 0.7)”.
For the compound `CCN1CCC[C@H]1CNC(=O)c1cc(S(=O)(=O)CC)ccc1OC` [Sultopride(S)], the “HIA(Human Intestinal Absorption)” value in data set [1] is 0.89. Also, in data set [2], the “Class(High: HIA value ≥0.7; Low: HIA value < 0.7)” value was “High (key: High: HIA value ≥0.7; Low: HIA value < 0.7)”.
`COc1ccc2c3c1O[C@H]1[C@@H](O)CC[C@H]4[C@@H](C2)N(C)CC[C@@]341` [Dihydrocodeine]: the “HIA(Human Intestinal Absorption)” value in data set [1] is 0.88. Moreover, the “Class(High: HIA value ≥0.7; Low: HIA value < 0.7)” value in data set [2] was “High (key: High: HIA value ≥0.7; Low: HIA value < 0.7)”.
As to `CC(C)NC[C@H](O)c1cc(O)cc(O)c1` [Metaproterenol(R)], the “HIA(Human Intestinal Absorption)” value in data set [1] is on record as 0.43. In data set [2], the “Class(High: HIA value ≥0.7; Low: HIA value < 0.7)” value is given as “Low (key: High: HIA value ≥0.7; Low: HIA value < 0.7)”.
Take `C[C@]12CC[C@H]3[C@@H](CCC4=CC(=O)CC[C@@]43C)[C@@H]1CC[C@@H]2O` [Testosterone]: in data set [1], the “HIA(Human Intestinal Absorption)” value was 1. The “Class(High: HIA value ≥0.7; Low: HIA value < 0.7)” value in data set [2] is on record as “High (key: High: HIA value ≥0.7; Low: HIA value < 0.7)”.
